From patent US12686673B2 (Blueprint Medicines Corporation, priority 2020, dated 2026) come the findings set out here.

Counter-ions that a name gives are not always drawn.

What all share (assay type): cell-based
In test [1] the target is EGFR(D770_N771insSVD) expressing Ba/F3 stable cell line (Homo sapiens, UniProt P00533, DUP768-770, cells depend on it). Description: Cellular proliferation (Alamar Blue) assay, EGFR D770_N771insSVD Ba/F3. The conditions noted are these: 72 hr, read-out: D770 IC50. In a few lines: (§1)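 Seventy-two-hour compound exposure (3-fold series, final 10–0.0005 μM) of mutant EGFR/HER2 Ba/F3 cells plated at 15,000/well in RPMI with 10% FBS. Alamar Blue added for 3 h at 37 °C as proliferation read-out.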
Chain of EGFR(D770_N771insSVD) expressing Ba/F3 stable cell line (P00533 with tags, fused parts or gaps DUP768-770): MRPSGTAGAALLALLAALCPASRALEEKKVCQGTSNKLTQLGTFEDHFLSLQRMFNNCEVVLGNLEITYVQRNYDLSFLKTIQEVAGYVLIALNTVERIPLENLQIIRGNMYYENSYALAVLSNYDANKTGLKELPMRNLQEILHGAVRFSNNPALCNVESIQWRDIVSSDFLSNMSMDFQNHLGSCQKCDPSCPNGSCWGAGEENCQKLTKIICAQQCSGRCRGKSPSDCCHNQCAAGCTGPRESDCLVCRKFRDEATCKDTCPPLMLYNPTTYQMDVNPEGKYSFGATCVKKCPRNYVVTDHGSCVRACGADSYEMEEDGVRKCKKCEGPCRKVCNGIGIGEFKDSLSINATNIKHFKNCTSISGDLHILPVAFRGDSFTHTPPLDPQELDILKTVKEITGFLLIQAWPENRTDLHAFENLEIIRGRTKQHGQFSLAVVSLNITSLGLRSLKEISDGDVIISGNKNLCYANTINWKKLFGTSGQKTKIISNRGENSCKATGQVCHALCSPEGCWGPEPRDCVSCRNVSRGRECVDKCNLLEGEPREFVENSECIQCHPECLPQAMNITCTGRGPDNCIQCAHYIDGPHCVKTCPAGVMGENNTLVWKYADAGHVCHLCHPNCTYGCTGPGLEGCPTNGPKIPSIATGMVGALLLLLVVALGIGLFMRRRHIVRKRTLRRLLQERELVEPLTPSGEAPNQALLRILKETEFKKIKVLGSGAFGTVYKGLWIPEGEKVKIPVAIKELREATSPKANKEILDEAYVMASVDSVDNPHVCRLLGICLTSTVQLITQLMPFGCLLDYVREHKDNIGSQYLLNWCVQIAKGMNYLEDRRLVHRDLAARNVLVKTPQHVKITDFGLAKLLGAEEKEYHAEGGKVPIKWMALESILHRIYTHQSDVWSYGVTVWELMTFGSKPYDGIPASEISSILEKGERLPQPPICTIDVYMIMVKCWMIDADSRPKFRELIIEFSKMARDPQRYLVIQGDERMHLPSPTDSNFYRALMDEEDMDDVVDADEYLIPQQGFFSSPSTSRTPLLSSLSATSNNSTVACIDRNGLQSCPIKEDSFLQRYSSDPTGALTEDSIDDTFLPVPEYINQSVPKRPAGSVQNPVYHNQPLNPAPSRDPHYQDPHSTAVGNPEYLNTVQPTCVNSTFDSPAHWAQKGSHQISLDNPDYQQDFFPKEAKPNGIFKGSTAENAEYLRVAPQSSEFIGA

The target in test [2] is EGFR (A767_dupASV) expressing Ba/F3 stable cell line (Homo sapiens, UniProt P00533, DUP767-769, cells depend on it). Nature of the test: Cellular proliferation (Alamar Blue) assay, EGFR A767_dupASV Ba/F3. The conditions noted are these: 72 hr, read-out: A767 IC50. In a few lines: as §1
Chain of EGFR (A767_dupASV) expressing Ba/F3 stable cell line (P00533 with tags, fused parts or gaps DUP767-769): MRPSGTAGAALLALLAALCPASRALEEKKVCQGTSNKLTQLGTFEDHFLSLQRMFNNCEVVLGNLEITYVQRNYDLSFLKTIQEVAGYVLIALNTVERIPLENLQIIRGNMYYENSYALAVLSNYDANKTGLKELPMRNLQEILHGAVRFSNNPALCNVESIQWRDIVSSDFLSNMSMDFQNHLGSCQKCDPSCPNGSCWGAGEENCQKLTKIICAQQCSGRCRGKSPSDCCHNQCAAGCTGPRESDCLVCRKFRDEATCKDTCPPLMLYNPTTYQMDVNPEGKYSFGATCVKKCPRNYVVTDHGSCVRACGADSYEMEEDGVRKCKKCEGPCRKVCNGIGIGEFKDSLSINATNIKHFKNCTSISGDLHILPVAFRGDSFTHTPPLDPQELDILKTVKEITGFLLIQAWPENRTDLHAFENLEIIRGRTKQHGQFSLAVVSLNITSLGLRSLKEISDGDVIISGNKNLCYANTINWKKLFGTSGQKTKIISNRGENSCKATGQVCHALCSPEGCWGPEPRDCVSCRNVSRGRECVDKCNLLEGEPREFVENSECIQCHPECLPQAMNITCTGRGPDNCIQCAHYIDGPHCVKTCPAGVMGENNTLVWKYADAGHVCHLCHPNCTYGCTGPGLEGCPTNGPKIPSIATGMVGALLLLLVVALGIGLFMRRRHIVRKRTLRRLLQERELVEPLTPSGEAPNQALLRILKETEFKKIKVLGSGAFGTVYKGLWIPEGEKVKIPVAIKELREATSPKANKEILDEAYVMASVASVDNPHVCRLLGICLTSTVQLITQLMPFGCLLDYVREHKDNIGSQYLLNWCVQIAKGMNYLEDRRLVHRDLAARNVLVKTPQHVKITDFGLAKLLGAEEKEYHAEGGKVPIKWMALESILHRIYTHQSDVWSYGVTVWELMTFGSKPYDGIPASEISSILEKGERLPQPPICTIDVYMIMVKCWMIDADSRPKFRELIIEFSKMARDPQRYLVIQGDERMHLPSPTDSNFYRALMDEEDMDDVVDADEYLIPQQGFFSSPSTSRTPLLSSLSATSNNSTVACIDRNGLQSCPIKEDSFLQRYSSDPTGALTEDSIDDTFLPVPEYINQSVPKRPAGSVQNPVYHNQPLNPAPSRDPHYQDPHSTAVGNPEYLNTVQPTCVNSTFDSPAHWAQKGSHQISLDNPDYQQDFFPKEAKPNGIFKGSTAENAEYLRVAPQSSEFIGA
On the technique in general: Alamar Blue is a resazurin reagent that responds to reducing activity.

In a further test the test system is A431 cells. Nature of the test: Cellular proliferation (Alamar Blue) assay, A431. To be noted: Homo sapiens, A-431; A431 cells, Alamar Blue, 72 hr; read-out: A431 IC50.
Test [3] has as its target HER2 (A775_G776insYVMA) expressing Ba/F3 stable cell line (Homo sapiens, UniProt P04626, DUP772-775, cells depend on it). Nature of the test: Cellular proliferation (Alamar Blue) assay, HER2 A775_G776insYVMA Ba/F3. The conditions noted are these: 72 hr, read-out: YVMA IC50. Put shortly: as §1

Chain of HER2 (A775_G776insYVMA) expressing Ba/F3 stable cell line (P04626 with tags, fused parts or gaps DUP772-775): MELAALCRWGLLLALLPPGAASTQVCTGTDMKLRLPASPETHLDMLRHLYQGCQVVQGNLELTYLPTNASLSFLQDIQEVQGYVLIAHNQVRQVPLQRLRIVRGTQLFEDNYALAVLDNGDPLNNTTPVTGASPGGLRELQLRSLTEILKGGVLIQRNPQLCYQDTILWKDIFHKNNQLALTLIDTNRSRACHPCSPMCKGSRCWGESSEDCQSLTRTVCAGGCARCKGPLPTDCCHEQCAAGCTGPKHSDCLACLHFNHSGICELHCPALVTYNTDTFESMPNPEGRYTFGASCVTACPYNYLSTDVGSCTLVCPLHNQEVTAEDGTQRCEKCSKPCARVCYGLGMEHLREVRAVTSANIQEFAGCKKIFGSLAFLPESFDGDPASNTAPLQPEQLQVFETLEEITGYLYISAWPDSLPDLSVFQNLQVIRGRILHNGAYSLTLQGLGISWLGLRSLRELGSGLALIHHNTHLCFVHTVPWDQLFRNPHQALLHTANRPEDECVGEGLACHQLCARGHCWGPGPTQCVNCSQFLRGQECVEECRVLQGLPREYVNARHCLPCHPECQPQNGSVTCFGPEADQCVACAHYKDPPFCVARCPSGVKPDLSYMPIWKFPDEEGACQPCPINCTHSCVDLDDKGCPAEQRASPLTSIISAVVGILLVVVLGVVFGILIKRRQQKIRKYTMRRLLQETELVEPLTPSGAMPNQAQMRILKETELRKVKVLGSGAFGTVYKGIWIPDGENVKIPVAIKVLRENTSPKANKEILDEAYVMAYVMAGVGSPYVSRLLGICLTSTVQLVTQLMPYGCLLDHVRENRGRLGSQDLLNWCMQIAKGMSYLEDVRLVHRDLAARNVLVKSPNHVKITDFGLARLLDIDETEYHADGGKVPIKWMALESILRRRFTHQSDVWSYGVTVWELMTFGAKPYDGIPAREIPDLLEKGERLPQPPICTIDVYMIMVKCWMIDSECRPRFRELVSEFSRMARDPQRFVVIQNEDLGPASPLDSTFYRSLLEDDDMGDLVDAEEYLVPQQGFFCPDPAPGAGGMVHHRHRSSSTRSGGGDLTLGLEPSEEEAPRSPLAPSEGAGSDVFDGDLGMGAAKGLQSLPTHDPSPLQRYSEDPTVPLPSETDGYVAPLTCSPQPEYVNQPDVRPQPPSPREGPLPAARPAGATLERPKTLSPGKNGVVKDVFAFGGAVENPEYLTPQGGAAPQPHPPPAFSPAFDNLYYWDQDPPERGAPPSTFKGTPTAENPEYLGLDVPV

The term IC50 denotes the concentration at which inhibition is half-maximal. `C=CC(=O)Nc1ccc(F)c(Nc2nc(Nc3ccnn3C)ncc2Cl)c1` [Compound 31, N-(3-((5-chloro-2-((1-methyl-1H-pyrazol-5-yl)amino)pyrimidin-4-yl)amino)-4-fluorophenyl)acrylamide]: the GI50 is 9.96 µM in test [1], 9.87 µM in test [2] and 5.18 µM in test [3]. The IC50 in the test with A431 cells stood at 9.8 µM.
Consider `C=CC(=O)Nc1cccc(Nc2nc(Nc3cnn(C)c3)ncc2NCc2ccccc2)c1` [Compound 32, N-(3-((5-(benzylamino)-2-((1-methyl-1H-pyrazol-4-yl)amino)pyrimidin-4-yl)amino)phenyl)acrylamide], for which the GI50 in test [1] came out at 0.824 µM; in test [2], 0.885 µM; in test [3], 1.61 µM. In addition, in the test on A431 cells, the half-inhibitory concentration (IC50) was more than 10 µM.
Consider `CN(C)C/C=C/C(=O)Nc1cccc(Nc2nc(Nc3cnn(C)c3)ncc2NCc2ccccc2)c1` [Compound 33, (E)-N-(3-((5-(benzylamino)-2-((1-methyl-1H-pyrazol-4-yl)amino)pyrimidin-4-yl)amino)phenyl)-4-(dimethylamino)but-2-enamide], for which the GI50 in test [1] was determined as 2.98 µM; in test [2], 4.07 µM; in test [3], 3.03 µM. Moreover, in the test on A431 cells, the concentration for half-maximal inhibition (IC50) worked out at 4.01 µM.
`CC(NC(=O)c1cnc(Nc2cnn(C)c2)nc1Nc1cccc(NC(=O)/C=C/CN(C)C)c1)c1ccccc1` (stereo not drawn) [Compound 35, (E)-4-((3-(4-(dimethylamino)but-2-enamido)phenyl)amino)-2-((1-methyl-1H-pyrazol-4-yl)amino)-N-(1-phenylethyl)pyrimidine-5-carboxamide]: the GI50 in test [1], in test [2] and in test [3] was more than 10 µM in each case. In the test with A431 cells, the IC50 was more than 10 µM.
Turning to `C=CC(=O)Nc1ccc(F)c(Nc2nc(Nc3cnn(C)c3)ncc2C(F)(F)F)c1` [Compound 36, N-(4-fluoro-3-((2-((1-methyl-1H-pyrazol-4-yl)amino)-5-(trifluoromethyl)pyrimidin-4-yl)amino)phenyl)acrylamide], the GI50 in test [1] was found to be 0.357 µM; in test [2], 0.332 µM; in test [3] it was 0.416 µM. The IC50 in the test with A431 cells was 8.15 µM.
Take `C=CC(=O)Nc1cccc(Nc2nc(Nc3cnn(C)c3)ncc2C(C)N(Cc2ccccc2)C(C)=O)c1` (stereo not drawn) [Compound 47, N-(3-((5-(1-(N-benzylacetamido)ethyl)-2-((1-methyl-1H-pyrazol-4-yl)amino)pyrimidin-4-yl)amino)phenyl)acrylamide]: the GI50 is 8.85 µM in test [1], 7.08 µM in test [2] and more than 10 µM in test [3]. Besides, in the test with A431 cells, the IC50 was more than 10 µM.
`C=CC(=O)Nc1cccc(Nc2nc(Nc3cnn(C)c3)ncc2CN(Cc2ccccc2)C(C)=O)c1` [Compound 48, N-(3-((5-((N-benzylacetamido)methyl)-2-((1-methyl-1H-pyrazol-4-yl)amino)pyrimidin-4-yl)amino)phenyl)acrylamide]: the GI50 was 8.8 µM in test [1], more than 10 µM in test [2] and more than 10 µM in test [3]. Also, in the test with A431 cells, the IC50 is more than 10 µM.
Turning to `C=CC(=O)Nc1ccc(F)c(Nc2nc(Nc3cnn(C)c3)ncc2NC(=O)c2ccccc2)c1` [Compound 50, N-(4-((5-acrylamido-2-fluorophenyl)amino)-2-((1-methyl-1H-pyrazol-4-yl)amino)pyrimidin-5-yl)benzamide], the GI50 in test [1] came out at 1.73 µM; in test [2] it was 1.47 µM; in test [3], 8.62 µM. The IC50 in the test with A431 cells is more than 10 µM.
Regarding `C=CC(=O)Nc1ccc(F)c(Nc2nc(Nc3cnn(C)c3)ncc2NS(=O)(=O)c2ccccc2)c1` [Compound 51, N-(4-fluoro-3-((2-((1-methyl-1H-pyrazol-4-yl)amino)-5-(phenylsulfonamido)pyrimidin-4-yl)amino)phenyl)acrylamide], the GI50 in test [1], in test [2] and in test [3] was more than 10 µM each time. In addition, the IC50 in the test with A431 cells is more than 10 µM.
Turning to `C=CC(=O)Nc1ccc(F)c(Nc2nc(Nc3cnn(C)c3)ncc2-c2ccc(N3CCOCC3)nc2)c1` [Compound 55, N-[4-fluoro-3-({2-[(1-methyl-1H-pyrazol-4-yl)amino]-5-[6-(morpholin-4-yl)pyridin-3-yl]pyrimidin-4-yl}amino)phenyl] prop-2-enamide], the GI50 in test [1] was determined as 0.945 µM; in test [2] it was 0.492 µM; in test [3], 1.87 µM. In the test with A431 cells, the half-maximal inhibitory concentration (IC50) is more than 10 µM.
In the case of `C=CC(=O)Nc1ccc(F)c(Nc2nc(Nc3cnn(C)c3)ncc2-c2cccc(NC(C)=O)c2)c1` [Compound 59, N-(3-((5-(3-acetamidophenyl)-2-((1-methyl-1H-pyrazol-4-yl)amino)pyrimidin-4-yl)amino)-4-fluorophenyl)acrylamide], the GI50 is more than 10 µM in test [1], more than 10 µM in test [2] and not below 10 µM in test [3]. The half-inhibitory concentration (IC50) in the test on A431 cells was more than 10 µM.
On to `C=CC(=O)Nc1ccc(F)c(Nc2nc(Nc3cnn(C)c3)ncc2-c2cccc(C(=O)NC)c2)c1` [Compound 60, 3-(4-((5-acrylamido-2-fluorophenyl)amino)-2-((1-methyl-1H-pyrazol-4-yl)amino)pyrimidin-5-yl)-N-methylbenzamide], for which the results for the GI50 in test [1], in test [2] and in test [3] were 7.94 µM, 7.65 µM and 6.58 µM, respectively. For the same compound, the IC50 in the test on A431 cells was more than 10 µM.
`C=CC(=O)Nc1ccc(F)c(Nc2nc(Nc3cnn(C)c3)ncc2-c2ccc(C#N)cc2)c1` [Compound 62, N-(3-((5-(4-cyanophenyl)-2-((1-methyl-1H-pyrazol-4-yl)amino)pyrimidin-4-yl)amino)-4-fluorophenyl)acrylamide]: the GI50 in test [1] was 0.323 µM; in test [2], 0.307 µM; in test [3], 2.59 µM. Also, in the test with A431 cells, the 50% inhibitory concentration (IC50) is more than 10 µM.
On to `C=CC(=O)Nc1ccc(F)c(Nc2nc(Nc3cnn(C)c3)ncc2-c2ccc(C(C)(C)C)cc2)c1` [Compound 76, N-(3-((5-(4-(tert-butyl)phenyl)-2-((1-methyl-1H-pyrazol-4-yl)amino)pyrimidin-4-yl)amino)-4-fluorophenyl)acrylamide trifluoroacetate], for which the GI50 in test [1] came out at 0.265 µM; in test [2] it was 0.308 µM; in test [3], 3.15 µM. The IC50 in the test on A431 cells came to 0.156 µM.
With `C=CC(=O)Nc1ccc(F)c(Nc2nc(Nc3cnn(C)c3)ncc2-c2ccc3c(ccn3C)c2)c1` [Compound 77, N-(4-fluoro-3-((5-(1-methyl-1H-indol-5-yl)-2-((1-methyl-1H-pyrazol-4-yl)amino)pyrimidin-4-yl)amino)phenyl)acrylamide trifluoroacetate], the GI50 in test [1] worked out at 0.299 µM; in test [2], 0.774 µM; in test [3], 2.75 µM. The IC50 in the test on A431 cells is 1.03 µM.
In the case of `C=CC(=O)Nc1ccc(F)c(Nc2nc(Nc3cnn(C)c3)ncc2-c2cccnc2OC)c1` [Compound 79, N-(4-fluoro-3-((5-(2-methoxypyridin-3-yl)-2-((1-methyl-1H-pyrazol-4-yl)amino)pyrimidin-4-yl)amino)phenyl)acrylamide], the GI50 in test [1] turned out to be 0.934 µM; in test [2], 0.887 µM; in test [3], 0.896 µM. In the test with A431 cells, the IC50 was more than 10 µM.
As to `C=CC(=O)Nc1ccc(F)c(Nc2nc(Nc3cnn(C)c3)ncc2-c2ccc(OC)nc2)c1` [Compound 86, N-(4-fluoro-3-((5-(6-methoxypyridin-3-yl)-2-((1-methyl-1H-pyrazol-4-yl)amino)pyrimidin-4-yl)amino)phenyl)acrylamide], the GI50 in test [1] stood at 0.036 µM; in test [2], 0.039 µM; in test [3], 0.185 µM. In the test with A431 cells, the concentration for half-maximal inhibition (IC50) was determined as 0.049 µM.
Take `C=CC(=O)Nc1ccc(F)c(Nc2nc(Nc3cnn(C)c3)ncc2-c2cccc(OC(F)(F)F)c2)c1` [Compound 96, N-(4-fluoro-3-((2-((1-methyl-1H-pyrazol-4-yl)amino)-5-(3-(trifluoromethoxy)phenyl)pyrimidin-4-yl)amino)phenyl)acrylamide trifluoroacetate]: the results for the GI50 in test [1], in test [2] and in test [3] were 0.345 µM, 0.79 µM and 7.73 µM, respectively. The concentration for half-maximal inhibition (IC50) in the test on A431 cells was 1.07 µM.
Turning to `C=CC(=O)Nc1ccc(F)c(Nc2nc(Nc3cnn(C)c3)ncc2-c2ccc3[nH]ccc3c2)c1` [Compound 97, N-(4-fluoro-3-{[5-(1H-indol-5-yl)-2-[(1-methyl-1H-pyrazol-4-yl)amino]pyrimidin-4-yl]amino}phenyl)prop-2-enamide], the values for the GI50 in test [1], in test [2] and in test [3] were 0.546 µM, 0.862 µM and 0.403 µM, respectively. For the same compound, the 50% inhibitory concentration (IC50) in the test on A431 cells was determined as 0.586 µM.
On to `C=CC(=O)Nc1ccc(F)c(Nc2nc(Nc3cnn(C)c3)ncc2-c2ccc(-c3ccccc3)cc2)c1` [Compound 127, N-(3-((5-([1,1′-biphenyl]-4-yl)-2-((1-methyl-1H-pyrazol-4-yl)amino)pyrimidin-4-yl)amino)-4-fluorophenyl)acrylamide], for which the GI50 in test [1] was 0.971 µM; in test [2] it was 0.565 µM; in test [3], 5.28 µM. The 50% inhibitory concentration (IC50) with A431 cells was found to be 0.258 µM.
For `C=CC(=O)Nc1ccc(F)c(Nc2nc(Nc3cnn(C)c3)ncc2-c2ccc(C3CC3)cc2)c1` [Compound 128, N-(3-((5-(4-cyclopropylphenyl)-2-((1-methyl-1H-pyrazol-4-yl)amino)pyrimidin-4-yl)amino)-4-fluorophenyl)acrylamide trifluoroacetate] the same measures were 0.101 µM, 0.114 µM, 0.654 µM and 0.064 µM.
